{
  "source": "patent US7691969B2",
  "about": "“Isolated GRP94 ligand binding domain polypeptide and nucleic acid encoding same, crystalline form of same, and screening methods employing same” (Duke University, priority 2001, dated 2010)",
  "key": {"[1]": {"target": "T1, GRP94 (Sus scrofa, UniProt Q29092)", "T1 construct": "GRP94 was purified from porcine pancreas rough microsomes; from tissue; host or cells: porcine pancreas rough microsomes (lumenal contents)", "T1 sequence (Q29092 22-804)": "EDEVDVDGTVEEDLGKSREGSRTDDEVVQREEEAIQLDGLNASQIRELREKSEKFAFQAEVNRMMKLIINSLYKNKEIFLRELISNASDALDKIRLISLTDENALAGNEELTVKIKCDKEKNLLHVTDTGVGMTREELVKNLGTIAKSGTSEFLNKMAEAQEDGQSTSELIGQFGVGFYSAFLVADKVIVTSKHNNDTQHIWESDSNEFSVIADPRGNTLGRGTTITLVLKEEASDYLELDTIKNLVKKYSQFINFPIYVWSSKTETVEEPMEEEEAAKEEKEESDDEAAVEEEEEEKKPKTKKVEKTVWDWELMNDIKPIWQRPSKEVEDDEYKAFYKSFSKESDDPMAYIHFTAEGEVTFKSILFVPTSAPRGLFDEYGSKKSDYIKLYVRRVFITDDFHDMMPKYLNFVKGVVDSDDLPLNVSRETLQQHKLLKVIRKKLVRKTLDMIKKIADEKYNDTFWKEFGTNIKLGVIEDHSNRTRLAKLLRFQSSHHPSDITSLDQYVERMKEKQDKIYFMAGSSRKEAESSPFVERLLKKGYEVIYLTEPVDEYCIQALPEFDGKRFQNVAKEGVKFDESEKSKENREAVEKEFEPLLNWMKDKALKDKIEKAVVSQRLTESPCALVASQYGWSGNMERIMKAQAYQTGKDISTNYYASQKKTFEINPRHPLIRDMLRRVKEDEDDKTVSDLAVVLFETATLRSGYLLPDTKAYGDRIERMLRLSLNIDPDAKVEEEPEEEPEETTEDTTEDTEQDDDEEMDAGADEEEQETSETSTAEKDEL", "assay": "Fluorophore binding to native and heat shocked GRP94 (fluorescence emission)", "parameters": "species or system porcine", "conditions": "for fluorophore binding to native versus heat shocked GRP94 (fluorescence emission): 0.5 μM GRP94, 5 μM probe, 37° C.", "excerpt": "Fluorophore Binding Reactions.\nFluorescence Measurements. […] All spectra were background corrected.\nTo characterize the structural basis for the heat shock dependent activation of GRP94 activity, the interaction of polarity-sensitive fluorophores with native and heat shocked GRP94 was examined. The three probes tested, Prodan (6-propionyl-2-(dimethylamino)naphthalene), 8-ANS (1,8-anilinonaphthalenesulfonate) and bis-ANS (bis(1,8-anilino-naphthalenesulfonate) are structurally related probes that bind to hydrophobic sites on proteins and undergo substantial fluorescence spectrum changes upon introduction into nonpolar environments, as discussed by Rosen & Weber (1969) Biochemistry 8:3915-3920; Weber & Farris (1979) Biochemistry 18:3075-3078; Takashi et al. (1977) Proc Natl Acad Sci USA 74:2334-2338; Shi et al. (1994) Biochemistry 33:7536-7546. The following experimental protocol was utilized. GRP94 was warmed to 37° C. and either maintained at 37° C. or heat shocked for 15 minutes at 50° C., followed by incubation at 37° C. Subsequently, probe stocks were added to the GRP94 stocks and emission spectra recorded after 30 min at 37° C.\nUnder the experimental conditions used in this series of experiments, bis-ANS binding to GRP94 was near maximal at a 20-fold molar excess of GRP94 monomer over bis-ANS, with half maximal binding observed at 110 nM GRP94 (FIG. 2B)."}, "[2]": {"target": "T1, GRP94", "assay": "[3H]-NECA competitive displacement assay", "format": "binding, porcine", "conditions": "for nucleoside base specificity: binding to GRP94 by [3H]-NECA displacement: competitors at 50 μM; for effect of excess Mg2+ on binding to GRP94: 10 mM Mg(OAc)2 versus nominal magnesium", "procedure": "Where indicated, binding reactions were performed in either buffer C (10 mM Tris, pH 7.5, 50 mM KCl, 5 mM MgCl2, 2 mM DTT, 0.01% NP-40, 20 mM Na2MoO4) or 50 mM Tris, pH 7.5, 10 mM Mg(OAc)2. […] Vacuum filtration was performed with an Amersham Pharmacia Biotech (Piscataway, N.J.) vacuum filtration manifold.\nAll binding reactions were performed in triplicate and corrected by subtraction of background values, determined in binding reactions lacking GRP94."}, "[3]": {"target": "HSP90 (Saccharomyces cerevisiae, UniProt P02829)", "sequence (P02829 whole entry)": "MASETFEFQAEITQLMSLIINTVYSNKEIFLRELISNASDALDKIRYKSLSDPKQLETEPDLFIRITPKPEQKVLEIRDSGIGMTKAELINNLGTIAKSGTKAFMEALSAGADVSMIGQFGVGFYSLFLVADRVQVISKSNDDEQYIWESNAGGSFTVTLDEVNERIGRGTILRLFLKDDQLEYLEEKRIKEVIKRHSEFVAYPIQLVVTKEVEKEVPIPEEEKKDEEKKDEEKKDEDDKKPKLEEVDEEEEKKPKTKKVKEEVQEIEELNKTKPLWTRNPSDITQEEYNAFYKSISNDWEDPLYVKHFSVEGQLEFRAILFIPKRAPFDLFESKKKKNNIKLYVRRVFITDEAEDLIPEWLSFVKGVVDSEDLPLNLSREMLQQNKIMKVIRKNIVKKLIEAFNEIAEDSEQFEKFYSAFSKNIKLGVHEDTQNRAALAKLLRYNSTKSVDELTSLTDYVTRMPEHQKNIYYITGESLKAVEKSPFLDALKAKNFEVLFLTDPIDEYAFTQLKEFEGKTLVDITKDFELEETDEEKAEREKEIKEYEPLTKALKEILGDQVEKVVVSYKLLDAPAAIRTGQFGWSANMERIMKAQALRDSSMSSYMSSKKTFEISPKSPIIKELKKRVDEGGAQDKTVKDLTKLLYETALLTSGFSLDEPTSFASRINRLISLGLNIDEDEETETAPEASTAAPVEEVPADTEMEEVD", "conditions": "cited from earlier work"}, "[4]": {"target": "T1, GRP94", "assay": "Tryptophan fluorescence (tertiary conformational state)", "format": "biochemical, porcine", "conditions": "50 μM NECA, 50 μM geldanamycin, 2.5 mM ATP or 2.5 mM ADP; 1 h 37° C.", "procedure": "Tryptophan Fluorescence. Tryptophan fluorescence measurements were conducted in a FLUOROMAX™ spectrofluorometer (Spex Industries, Inc. of Edison, N.J.) with the slit widths set to 1 nm for both excitation and emission. […] All spectra were corrected by subtraction of buffer or buffer plus ligand samples. GRP94 (50 μg/ml) was incubated in buffer A supplemented with 10 mM Mg(OAc)2 and the following concentrations of ligands for 1 hour at 37° C. […] Samples were then cooled to room temperature, transferred to a quartz cuvette, and the spectra collected."}, "[5]": {"target": "casein kinase II (Homo sapiens, UniProt P68400)", "sequence (P68400 whole entry)": "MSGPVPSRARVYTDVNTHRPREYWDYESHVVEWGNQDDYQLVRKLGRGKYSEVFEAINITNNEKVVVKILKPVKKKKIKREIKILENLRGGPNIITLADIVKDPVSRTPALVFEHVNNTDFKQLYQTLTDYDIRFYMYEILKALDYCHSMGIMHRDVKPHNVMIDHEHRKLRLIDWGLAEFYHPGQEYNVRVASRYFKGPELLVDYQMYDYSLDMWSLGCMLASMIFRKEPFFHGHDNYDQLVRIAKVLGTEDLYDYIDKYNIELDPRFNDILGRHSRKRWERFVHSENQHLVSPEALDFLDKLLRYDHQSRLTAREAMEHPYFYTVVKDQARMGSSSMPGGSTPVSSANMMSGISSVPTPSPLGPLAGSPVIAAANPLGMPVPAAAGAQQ", "sequence (P67870 whole entry partner)": "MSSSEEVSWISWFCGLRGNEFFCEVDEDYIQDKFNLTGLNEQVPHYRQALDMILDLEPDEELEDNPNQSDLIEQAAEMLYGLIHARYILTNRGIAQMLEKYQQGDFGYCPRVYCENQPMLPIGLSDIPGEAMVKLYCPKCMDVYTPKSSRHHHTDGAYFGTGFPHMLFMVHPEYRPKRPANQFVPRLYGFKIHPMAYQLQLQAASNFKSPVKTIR", "assay": "Casein kinase assay", "format": "biochemical", "conditions": "180 μM NECA or radicicol in 3.6% DMSO, 5 μg/ml heparin, 5 mM GTP; 4 μM casein", "procedure": "(§1) Phosphorylation Assays. To assay for GRP94 autophosphorylation, 1 μM GRP94 was incubated with γ-[^32P]ATP (6000 cpm/pmol) (Amersham Pharmacia Biotech of Piscataway, N.J.), diluted with cold ATP to yield a final concentration of 0.15 mM ATP in a buffer containing 10 mM Mg(OAc)2 and 50 mM K-Hepes, pH 7.4. For the casein kinase assay, 1 unit of casein kinase II was incubated as described above, with the addition of 4 μM casein. […] The 25 μl reaction mixtures were incubated at 37° C. for 1 hour and quenched by addition of 10% trichloroacetic acid. Samples were analyzed by 10% SDS-PAGE gels and the phosphorylated species were quantitated using a Fuji MACBAS1000™ phosphorimaging system (Fuji Medical Systems of Stamford, Conn.)."}, "[6]": {"target": "T1, GRP94", "assay": "GRP94 autophosphorylation assay", "format": "biochemical, porcine", "conditions": "180 μM NECA or radicicol in 3.6% DMSO, 5 μg/ml heparin, 5 mM GTP", "procedure": "as §1"}},
  "data": [
    {"molecule": "CCC(=O)c1ccc2cc(N(C)C)ccc2c1", "note": "[Prodan, 6-propionyl-2-(dimethylamino)naphthalene]", "values": [
      {"measurement": "fluorophore binding to native versus heat shocked GRP94 (fluorescence emission)", "setting": "[1]", "result": "does not interact with the hydrophobic binding pocket(s) displayed by heat shocked GRP94"}
    ]},
    {"molecule": "Nc1ncnc2c1ncn2[C@H]1C[C@H](O)[C@@H](COP(=O)(O)OP(=O)(O)OP(=O)(O)O)O1", "note": "[deoxyATP]", "values": [
      {"measurement": "nucleoside base specificity: binding to GRP94 by [3H]-NECA displacement", "setting": "[2]", "result": "GRP94 could bind both ATP and deoxyATP"}
    ]},
    {"molecule": "Nc1ncnc2c1ncn2[C@@H]1O[C@H](COP(=O)(O)OP(=O)(O)O)[C@@H](O)[C@H]1O", "note": "[ADP]", "values": [
      {"measurement": "effect of excess Mg2+ on binding to GRP94", "setting": "[2]", "result": "markedly stimulated the binding of ATP, ADP and AMP"},
      {"measurement": "relative affinities for GRP94 in presence of Mg2+", "setting": "[2]; excess Mg2+", "result": "nearly identical relative affinities"},
      {"measurement": "affinity of N-terminal domain of Hsp90, ADP relative to ATP", "setting": "[3]; Prodromou et al. (1997)", "result": "four-fold higher affinity than that observed for ATP"},
      {"measurement": "change of GRP94 tryptophan fluorescence", "setting": "[4]", "result": "the tryptophan fluorescence was decreased"}
    ]},
    {"molecule": "O=c1ccn([C@@H]2O[C@H](COP(=O)(O)OP(=O)(O)OP(=O)(O)O)[C@@H](O)[C@H]2O)c(=O)[nH]1", "note": "[UTP]", "values": [
      {"measurement": "nucleoside base specificity: binding to GRP94 by [3H]-NECA displacement", "setting": "[2]", "result": "little to no binding"}
    ]},
    {"molecule": "Nc1ncnc2c1ncn2[C@@H]1O[C@H](CO)[C@@H](O)[C@H]1O", "note": "[adenosine]", "values": [
      {"measurement": "relative displacement activity in [3H]-NECA competition", "setting": "[2]", "result": "relative displacement activity approximating that observed for ADP"},
      {"measurement": "effect of excess Mg2+ on binding to GRP94", "setting": "[2]", "result": "without effect on the binding of NECA or adenosine to GRP94"}
    ]},
    {"molecule": "Heparin", "values": [
      {"measurement": "inhibition of casein kinase II activity", "setting": "[5]", "result": "markedly attenuated GRP94-derived and casein kinase II activity"},
      {"measurement": "inhibition of GRP94 autophosphorylation (GRP94-derived kinase) activity", "setting": "[6]", "result": "markedly attenuated GRP94-derived and casein kinase II activity"}
    ]},
    {"molecule": "Nc1ccn([C@@H]2O[C@H](COP(=O)(O)OP(=O)(O)OP(=O)(O)O)[C@@H](O)[C@H]2O)c(=O)n1", "note": "[CTP]", "values": [
      {"measurement": "nucleoside base specificity: binding to GRP94 by [3H]-NECA displacement", "setting": "[2]", "result": "little to no binding"}
    ]},
    {"molecule": "Nc1ncnc2c1ncn2[C@@H]1O[C@H](COP(=O)(O)O)[C@@H](O)[C@H]1O", "note": "[AMP]", "values": [
      {"measurement": "effect of excess Mg2+ on binding to GRP94", "setting": "[2]", "result": "markedly stimulated the binding of ATP, ADP and AMP"}
    ]},
    {"molecule": "O=S(=O)(O)c1cccc2cccc(Nc3ccccc3)c12", "note": "[8-ANS, 1,8-anilinonaphthalenesulfonate]", "values": [
      {"measurement": "agonist activity for GRP94 activation", "setting": "[1]", "result": "functions solely as an indicator and lacks agonist activity"},
      {"measurement": "fluorophore binding to native versus heat shocked GRP94 (fluorescence emission)", "setting": "[1]", "result": "displays weak interactions with native GRP94, yet binds avidly following heat shock"}
    ]},
    {"molecule": "C[C@@H]1C[C@H]2O[C@@H]2/C=C\\C=C\\C(=O)Cc2c(Cl)c(O)cc(O)c2C(=O)O1", "note": "[radicicol]", "values": [
      {"measurement": "inhibition of casein kinase II activity", "setting": "[5]", "result": "neither NECA nor radicicol, both of which bind to the N-terminal nucleotide binding domain of GRP94, significantly inhibit GRP94 derived or casein kinase II activity below the solvent background"},
      {"measurement": "binding stoichiometry to Hsp90", "setting": "[3]; Roe et al. (1999)", "result": "2 mol radicicol/mol Hsp90 dimer"}
    ]},
    {"molecule": "Nc1nc2c(ncn2[C@@H]2O[C@H](COP(=O)(O)OP(=O)(O)OP(=O)(O)O)[C@@H](O)[C@H]2O)c(=O)[nH]1", "note": "[GTP]", "values": [
      {"measurement": "nucleoside base specificity: binding to GRP94 by [3H]-NECA displacement", "setting": "[2]", "result": "little to no binding"},
      {"measurement": "inhibition of casein kinase II activity", "setting": "[5]", "result": "markedly attenuated GRP94-derived and casein kinase II activity"},
      {"measurement": "inhibition of GRP94 autophosphorylation (GRP94-derived kinase) activity", "setting": "[6]", "result": "markedly attenuated GRP94-derived and casein kinase II activity"}
    ]}
  ]
}
